Converted amounts (≈) assume the structure as drawn. Like-named read-outs stand apart in the source and are kept apart here.
Experiments:
HIV (HTLV-IIIB strain) = assay: microbe, parasite or virus in culture; type: cell-based
Method: The anti-HIV activity of each of the compounds produced in Examples was assayed by the following procedures. […] On the other hand, the test compound was diluted with the above culture medium to predetermined concentrations and distributed in 50 μl aliquots into a 96-well microtiter plate. Then, d suspension of MT-4 cells was added in 100 μl aliquots (3.5×10^4 cells per well) and then the above HIV-containing supernatant diluted with the above culture medium was added, 50 μl (60 pfu (plaque forming units)) per well. (2) The plate was incubated in a CO2 incubator at 37° C. for 5 days. Then, 30 μl/well of 3-(4,5-dimethyl thiazol-2-yl)-2,5-diphenyltetrazolium bromide (MTT) (5 mg/ml PBS) was added and the incubation was further continued for 1 hour. The surviving cells reducing MTT yield precipitation of formazan. Therefore, 150 μl portions of the culture supernatant were removed from all wells and, instead, 150 μl of a solution (10% Triton X-100 and 0.4% (v/v) HCl-added isopropyl alcohol) was added. The plate was shaken on a plate mixer to dissolve the formazan.

[1] = cytotoxicity in MT-4 cells (MTT, culture medium in place of HIV); type: cell-based; conditions: human
Method: The anti-HIV activity of each of the compounds produced in Examples was assayed by the following procedures. (1) Human T cell line MOLT-4 clone 8 persistently infected by HIV (HTLV-IIIB strain) was cultured in an RPMI-1640 medium supplemented with 10% fetal calf serum, the culture supernatant was filtered, and the titer of virus was determined; the culture supernatant was stored at -80° C. On the other hand, the test compound was diluted with the above culture medium to predetermined concentrations and distributed in 50 μl aliquots into a 96-well microtiter plate. Then, d suspension of MT-4 cells was added in 100 μl aliquots (3.5×10^4 cells per well) and then the above HIV-containing supernatant diluted with the above culture medium was added, 50 μl (60 pfu (plaque forming units)) per well. (2) The plate was incubated in a CO2 incubator at 37° C. for 5 days. Then, 30 μl/well of 3-(4,5-dimethyl thiazol-2-yl)-2,5-diphenyltetrazolium bromide (MTT) (5 mg/ml PBS) was added and the incubation was further continued for 1 hour. The surviving cells reducing MTT yield precipitation of formazan. Therefore, 150 μl portions of the culture supernatant were removed from all wells and, instead, 150 μl of a solution (10% Triton X-100 and 0.4% (v/v) HCl-added isopropyl alcohol) was added. The plate was shaken on a plate mixer to dissolve the formazan. The OD of formazan was measured with a microreader at 560 nm arid 690 nm (reference wavelength) and the result was compared with that of control.
The cytotoxicity of each of the compounds produced in Examples was assayed. In place of the HIV-containing supernatant (the virus suspension) in (1) in Test Example 1, 50 μl of the culture medium was added to each well, and the cytotoxicity was determined in the same manner as that for (2) in Test Example 1.

[2] = target: T1, purified recombinant HIV-1 reverse transcriptase (Human immunodeficiency virus type 1 group M subtype B, UniProt P04585); assay: reverse transcriptase inhibition, poly(rA)/(dT) template primer, [3H]dTTP uptake; type: biochemical
T1 construct: purified recombinant HIV-1 reverse transcriptase; made in house; host or cells: Escherichia coli
Method: The reverse transcriptase activity of each of the compounds synthesized in Examples was assayed by the following procedures.
Using the purified recombinant HIV-1 reverse transcriptase RT, E.C. 2.7.7.49) obtained by expression in Escherichia Coli, a 96-well plate assay system was established for assaying a large number of samples. The RT inhibitory activity was determined as follows. To 11 μl of a solution of the test inhibitor in water or MSO was added 100 μl of a reaction mixture (0.1 unit/100 μl RT, 50 mM Tris-HCl pH 8.3, 150 mM KCl, 10 mM MgCl2, 3 mM dithiothreitol, 0.1% Nonidet P-40, 10 μg/ml. poly(rA) and 10 μg/ml (dT)12-1.8 as template and primer, and 4 μM dTTP, 1 μCi/100 μl [^3 H]dTTP as substrate) and the mixture was incubated at 37° C. for 1 hour and, then, immediately cooled on ice. Using a cell harvester, the reaction mixture was transferred to a DEAE-filter mat (LKB-Pharmacia). Then, using the wash line of the cell harvester, the cells were washed twice with 5% Na2 HPO4 /H2 O and once with water and dried at 95° C. for 15 minutes. […] The inhibitory activity was expressed in percent inhibition relative to the uptake on water or DMSO control.

[3] = Human immunodeficiency virus 1, IIIB, MT4, 120 h
[4] = MT-4 cells, no virus, 37° C., 5 days, MTT, Table 3, read-out: CC50
[5] = Human immunodeficiency virus 1, IIIB, MT4, 120 h, MT-4 cells, 60 pfu HIV per well, 37° C., 5 days, MTT, Tables 1 and 2, read-out: EC50

Compound	EC50 (HIV (HTLV-IIIB strain); [3])	CC50 at 120 h [1, 4]	IC50 [2]	EC50 (HIV (HTLV-IIIB strain); [5])	CC50 at 120 h ([1]; mt-4 cells)	IC50 ([2]; read-out: RT IC50, pH 8.3, 37° C., 1 hour, Tables 5 and 6)	EC50 (HIV (HTLV-IIIB strain); MT-4 cells, 60 pfu HIV per well, 37° C., 5 days, MTT, Tables 1 and 2)	RT IC50 ([2]; pH 8.3, 37° C., 1 hour, Tables 5 and 6)
CC(C)c1nc(COC(N)=O)n(Cc2ccccc2)c1Sc1cccc([N+](=O)[O-])c1 [Compound I-47, 1-benzyl-2-carbamoyloxymethyl-4-isopropyl-5-(3-nitrophenylthio)-1H-imidazole]	2 ng/mL (≈ 0.00469 µM)	6.3 to 12.5 µg/mL (≈ 14.8 to 29.3 µM)	2.3 µM					
CCn1c(COCCOC(C)=O)nc(C(C)C)c1Sc1cc(Cl)cc(Cl)c1 [Compound I-62, 2-{[5-(3,5-dichlorophenylthlio)-1-ethyl-4-isopropyl-1H-imidazol-2-yl]methoxy} ethyl acetate]		12.5 to 25 µg/mL	15.8 µM	30 to 60 ng/mL				
C=CCn1c(CO)nc(C(C)C)c1Sc1cccc(Cl)c1 [Compound I-17, [1-allyl-5-(3-chlorophenylthio)-4-isopropyl-1H-imidazol-2-yl]methanol]		6.3 to 12.5 µg/mL (≈ 19.5 to 38.7 µM)	< 2.48 µM	5 to 10 ng/mL (≈ 0.0155 to 0.031 µM)				
CC(C)c1nc(CCOC(N)=O)n(Cc2ccc(N)cc2)c1Sc1cc(Cl)cc(Cl)c1 [Compound I-140, 1-(p-aminobenzyl)-2-(2-carbamoyloxyethyl)-5-(3,5-dichlorophenylthio)-4-isopropyl-1H-imidazole]			29.8 µM	30 to 60 ng/mL (≈ 0.0626 to 0.125 µM)	6.3 to 12.5 µg/mL (≈ 13.1 to 26.1 µM)			
CC(C)c1nc(CCOC(N)=O)n(Cc2ccc([N+](=O)[O-])cc2)c1Sc1cc(Cl)cc(Cl)c1 [Compound 128a, 2-(2-carbamoyloxyethyl)-5-(3,5-dichlorophenylthio)-4-isopropyl-1-(p-nitrobenzyl)-1H-imidazole]			104 µM	3100 to 6300 ng/mL (≈ 6.09 to 12.4 µM)	6.3 µg/mL (≈ 12.4 µM)			
CC(C)c1nc(CCOC(N)=O)n(Cc2ccccc2[N+](=O)[O-])c1Sc1cc(Cl)cc(Cl)c1 [Compound 128c, 2-(2-Carbamoyloxyethyl)-5-(3,5-dichlorophenylthio)-4-isopropyl-1-(o-nitrobenzyl)-1H-imidazole]			> 196 µM	250 ng/mL (≈ 0.491 µM)	6.3 to 12.5 µg/mL (≈ 12.4 to 24.5 µM)			
CC(C)c1nc(CN)n(Cc2ccccn2)c1Sc1cc(Cl)cc(Cl)c1 [Compound I-95]			1.74 µM	30 to 60 ng/mL (≈ 0.0736 to 0.147 µM)	6.3 µg/mL (≈ 15.5 µM)			
CNC(=S)NCc1nc(C(C)C)c(Sc2cc(Cl)cc(Cl)c2)n1C [Compound I-89, 5-(3,5-dichlorophenylthio)-4-isopropyl-1-methyl-2-(N-methylthiocarbamoyl)aminomethyl-1H-imidazole]		1 to 10 µg/mL (≈ 2.48 to 24.8 µM)	> 248 µM	1000 ng/mL (≈ 2.48 µM)				
CC(C)c1nc(COC(N)=O)n(CCCc2ccccn2)c1Sc1cc(Cl)cc(Cl)c1 [Compound I-130, 2-carbamoyloxymethyl-5-(3,5-dichlorophenylthio)-4-isopropyl-1-(3-(2-pyridyl)propyl)-1H-imidazole]			3.96 µM	< 8 ng/mL	6.3 to 12.5 µg/mL (≈ 13.1 to 26.1 µM)			
CC(C)c1nc(CCO)n(Cc2ccccc2[N+](=O)[O-])c1Sc1cc(Cl)cc(Cl)c1 [Compound 126c, 5-(3,5-Dichlorophenylthio)-2-(2-hydroxyethyl)-4-isopropyl-1-o-nitrobenzyl-1H-imidazole]			60.9 µM	130 ng/mL (≈ 0.279 µM)	6.3 µg/mL (≈ 13.5 µM)			
COC(=O)C(C)c1nc(C)n(C)c1Sc1cc(C)cc(C)c1 (stereo not drawn) [Compound I-96, methyl 2-[1,2-dimethyl-5-(3,5-dimethylphenylthio)-1H-imidazol-4-yl]propionate]		10 to 100 µg/mL (≈ 31.4 to 314 µM)	14.4 µM	30 ng/mL (≈ 0.0942 µM)				
CC(C)c1nc(CCN)n(C)c1Sc1cc(Cl)cc(Cl)c1 [Compound I-82, 2-(2-aminoethyl)-5-(3,5-dichlorophenylthio)-4-isopropyl-1-methyl-1H-imidazole]				250 ng/mL (≈ 0.726 µM)	1.5 to 3.2 µg/mL (≈ 4.36 to 9.29 µM)	1.28 µM		
CC(O)Cn1c(CO)nc(C(C)C)c1Sc1cc(Cl)cc(Cl)c1 (stereo not drawn) [I-32', [1-(2-hydroxypropyl)-5-(3,5-dichlorophenylthio)-4-isopropyl-1H-imidazol-2-yl]methanol]		12.5 to 25 µg/mL (≈ 33.3 to 66.6 µM)	1.52 µM	2 to 4 ng/mL (≈ 0.00533 to 0.0107 µM)				
CC(C)c1nc(CCCOC(N)=O)n(Cc2ccncc2)c1Sc1cc(Cl)cc(Cl)c1 [Compound I-150, 2-(3-carbamoyloxypropyl)-5-(3,5-dichlorophenylthio)-4-isopropyl-1-(pyridin-4-yl)methyl-1H-imidazole]			1.88 µM	8 ng/mL (≈ 0.0167 µM)	6.3 to 12.5 µg/mL (≈ 13.1 to 26.1 µM)			
CC(C)c1c(Sc2cccc(Cl)c2)nc(CO)n1C [Compound I-38, [4-(3-chlorophenylthio)-5-isopropyl-1-methyl-1H-imidazol-2-yl]methanol]		12.5 to 25 µg/mL (≈ 42.1 to 84.2 µM)	273 µM	6300 ng/mL (≈ 21.2 µM)				
Cc1nc(C(C)C)c(Sc2cccc(Cl)c2)n1C [Compound I-3, 5-(3-chlorophenylthio)-1,2-dimethyl-4-isopropylimidazole]		12.5 µg/mL (≈ 44.5 µM)	3.56 µM	30 ng/mL (≈ 0.107 µM)				
CCn1c(CCCO)nc(C(C)C)c1Sc1cc(Cl)cc(Cl)c1 [Compound 137b, 3-(5-(3,5-dichlorophenylthio)-1-ethyl-4-isopropyl-1H-imidazol-2-yl)-propan-1-ol]			0.991 µM	5 to 10 ng/mL (≈ 0.0134 to 0.0268 µM)	6.3 to 12.5 µg/mL (≈ 16.9 to 33.5 µM)			
2-aminoethyl-1-n-butyl-5-(3,5-dichlorophenylthio)-4-isopropyl-1H-imidazole [Compound I-68]							16 ng/mL	0.61 µg/mL
CCn1c(CO)nc(C(C)C)c1Sc1cc(Cl)cc(Cl)c1 [Compound I-25, 2-[5-(3,5-dichlorophenylthio)-1-ethyl-4-isopropyl-1H-imidazol-2-yl]methanol]		10 to 100 µg/mL (≈ 29 to 290 µM)	1.39 µM	4 ng/mL (≈ 0.0116 µM)				
CC(C)c1nc(CO)n(CC(=O)c2ccccc2)c1Sc1cc(Cl)cc(Cl)c1 [Compound I-31, [1-benzoylmethyl-5-(3,5-dichlorophenylthio)-4-isopropyl-1H-imidazol-2-yl]methanol]		100 µg/mL (≈ 230 µM)		60 ng/mL (≈ 0.138 µM)				
CC(C)c1nc(COC(N)=O)n(Cc2ccncc2)c1Sc1cc(Cl)cc(Cl)c1 [I-93', 2-carbamoyloxymethyl-5-(3,5-dichlorophenylthio)-4-isopropyl-1-(pyridin-4-yl)methyl-1H-imidazole]	0.06 to 0.13 ng/mL (≈ 0.000133 to 0.000288 µM)	10 to 100 µg/mL (≈ 22.2 to 222 µM)						

Reference: US6147097A, “Imidazole derivatives as anti-HIV agents” (Shionogi & Co., Ltd., priority 1994, dated 2000)
